The values below are quoted from earlier work in PMC10894724 (Chemistry (Weinheim an der Bergstrasse, Germany), 2023).

The series has as its system P. falciparum Dd2 strain.

Regarding `CCCCCC(=O)N[C@H](C(=O)N[C@@H](CCS(C)(=O)=O)C(=O)N[C@@H](CC(C)C)C(=O)[C@@]1(C)CO1)C(C)C` [carmaphycin B], the “selectivity for asexual blood stage P. falciparum cells over human HepG2 cells” value is given as 3 fold.
